Data as given in patent US8507686B2, “Substituted bicyclic methyl azetidines as sphingosine-1 phosphate receptors modulators” (Allergan, Inc., priority 2011, dated 2013).

Biological target: T1, human S1P1 receptor (Homo sapiens, UniProt P21453)
T1 construct: expressed in transfected cells; host or cells: cells stably expressing the S1P1 receptor; membranes used
Assay: GTP γ35S binding assay for S1P1 activity
Format: biochemical
Conditions: membranes of cells stably expressing the S1P1 receptor; agonist-induced GTP γ35S binding; read-out: EC50 at the S1P1 receptor from GTP γ35S
Description: Novel compounds were synthesized and tested for S1P1 activity using the GTP γ^35S binding assay. These compounds may be assessed for their ability to activate or block activation of the human S1P1 receptor in cells stably expressing the S1P1 receptor. […] binding was measured in the medium containing (mM) HEPES 25, pH 7.4, MgCl2 10, NaCl 100, dithitothreitol 0.5, digitonin 0.003%, 0.2 nM GTP γ^35S, and 5 μg membrane protein in a volume of 150 μl. Test compounds were included in the concentration range from 0.08 to 5,000 nM unless indicated otherwise. Membranes were incubated with 100 μM 5′-adenylylimmidodiphosphate for 30 min, and subsequently with 10 μM GDP for 10 min on ice. Drug solutions and membrane were mixed, and then reactions were initiated by adding GTP γ^35 S and continued for 30 min at 25° C. Reaction mixtures were filtered over Whatman GF/B filters under vacuum, and washed three times with 3 mL of ice-cold buffer (HEPES 25, pH7.4, MgCl2 10 and NaCl 100). Filters were dried and mixed with scintillant, and counted for ^35S activity using a β-counter. Agonist-induced GTP γ^35 S binding was obtained by subtracting that in the absence of agonist. Binding data were analyzed using a non-linear regression method. In case of antagonist assay, the reaction mixture contained 10 nM […] in the presence of test antagonist at concentrations ranging from 0.08 to 5000 nM.

T1 sequence (P21453 whole entry): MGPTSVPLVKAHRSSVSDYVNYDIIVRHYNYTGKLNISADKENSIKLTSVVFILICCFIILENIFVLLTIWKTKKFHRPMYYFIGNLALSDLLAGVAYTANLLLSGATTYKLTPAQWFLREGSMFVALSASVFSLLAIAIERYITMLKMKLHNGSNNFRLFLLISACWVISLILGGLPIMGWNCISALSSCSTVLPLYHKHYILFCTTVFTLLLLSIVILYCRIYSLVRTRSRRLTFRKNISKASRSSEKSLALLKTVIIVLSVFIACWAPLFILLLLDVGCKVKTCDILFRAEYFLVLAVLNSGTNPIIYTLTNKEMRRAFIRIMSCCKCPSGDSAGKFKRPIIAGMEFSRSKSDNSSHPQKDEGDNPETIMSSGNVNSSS

EC50: 0.39 µM
SMILES: O=C(O)C1CN(Cc2ccc(C#CCCCCc3ccccc3)c3cccnc23)C1 [Compound 1]
